Laboratory results as given in patent publication US20240383901A1, “SUBSTITUTED PYRROLO[2,3-D]PYRIMIDINES, THEIR PREPARATION AND THEIR THERAPEUTIC APPLICATION” (SANOFI, priority 2021, published 2024).

Assays:
[1] = target: T1, full-length LRRK2 wild type (Homo sapiens, UniProt Q5S007); experiment: LRRK2 WT assay (Assay A, Lanthascreen TR-FRET, 500 uM ATP); assay type: biochemical; conditions: Assay A (values without *)
T1 construct: DYDDDDK tagged full-length LRRK2 wild type is used
Description: (§1) The potency of compounds was evaluated in vitro using the Lanthascreen® technology (ThermoFisher Scientific).
(§2) In a typical experiment, the reaction assay buffer contains 50 mM Tris pH8.2, 1 mM EGTA, 2.5 mM MgCl2, 0.05% Triton X100, 0.15% BSA and 1 mM DTT. The detection of the assay is performed using 1 nM Terbium labeled anti-phospho-LRRKtide (ThermoFisher Scientific) diluted in a TR-FRET buffer (ThermoFisher Scientific).
(§3) The experimental procedure was performed with Greiner small volume® 384-well. […] The working solution of compounds was prepared in a separate Greiner microplate.
(§4) The kinase reaction was initiated by addition of the ATP/LRRKtide substrate mix diluted in the reaction assay buffer. The reaction mix was incubated for at least 10 minutes at room temperature (initial velocity conditions). Reaction was stopped by addition of Terbium labeled anti-phospho-LRRKtide diluted into the detection buffer supplemented with EDTA (ThermoFisher Scientific). Plates are incubated for at least 30 minutes at room temperature and read on an Envision™ multimode plate reader (PerkinElmer) with LanthaScreen™. The TR-FRET 520:495 nm emission ratio was calculated and used to determine the IC50 value from a dose response curve fit to the 4-parameter logistic equation. The activity with respect to LRRK2 kinase in this test is given by the concentration which inhibits 50% of the LRRK2 activity (or IC50) in nM.

full-length LRRK2 G2019S = target: T2, full-length LRRK2 G2019S (Homo sapiens, UniProt Q5S007, G2019S); experiment: LRRK2-G2019S kinase activity assay (Lanthascreen TR-FRET); assay type: biochemical; conditions: 1.1 mM ATP
T2 construct: DYKDDDDK (FLAG)
T2 sequence (Q5S007 whole entry G2019S): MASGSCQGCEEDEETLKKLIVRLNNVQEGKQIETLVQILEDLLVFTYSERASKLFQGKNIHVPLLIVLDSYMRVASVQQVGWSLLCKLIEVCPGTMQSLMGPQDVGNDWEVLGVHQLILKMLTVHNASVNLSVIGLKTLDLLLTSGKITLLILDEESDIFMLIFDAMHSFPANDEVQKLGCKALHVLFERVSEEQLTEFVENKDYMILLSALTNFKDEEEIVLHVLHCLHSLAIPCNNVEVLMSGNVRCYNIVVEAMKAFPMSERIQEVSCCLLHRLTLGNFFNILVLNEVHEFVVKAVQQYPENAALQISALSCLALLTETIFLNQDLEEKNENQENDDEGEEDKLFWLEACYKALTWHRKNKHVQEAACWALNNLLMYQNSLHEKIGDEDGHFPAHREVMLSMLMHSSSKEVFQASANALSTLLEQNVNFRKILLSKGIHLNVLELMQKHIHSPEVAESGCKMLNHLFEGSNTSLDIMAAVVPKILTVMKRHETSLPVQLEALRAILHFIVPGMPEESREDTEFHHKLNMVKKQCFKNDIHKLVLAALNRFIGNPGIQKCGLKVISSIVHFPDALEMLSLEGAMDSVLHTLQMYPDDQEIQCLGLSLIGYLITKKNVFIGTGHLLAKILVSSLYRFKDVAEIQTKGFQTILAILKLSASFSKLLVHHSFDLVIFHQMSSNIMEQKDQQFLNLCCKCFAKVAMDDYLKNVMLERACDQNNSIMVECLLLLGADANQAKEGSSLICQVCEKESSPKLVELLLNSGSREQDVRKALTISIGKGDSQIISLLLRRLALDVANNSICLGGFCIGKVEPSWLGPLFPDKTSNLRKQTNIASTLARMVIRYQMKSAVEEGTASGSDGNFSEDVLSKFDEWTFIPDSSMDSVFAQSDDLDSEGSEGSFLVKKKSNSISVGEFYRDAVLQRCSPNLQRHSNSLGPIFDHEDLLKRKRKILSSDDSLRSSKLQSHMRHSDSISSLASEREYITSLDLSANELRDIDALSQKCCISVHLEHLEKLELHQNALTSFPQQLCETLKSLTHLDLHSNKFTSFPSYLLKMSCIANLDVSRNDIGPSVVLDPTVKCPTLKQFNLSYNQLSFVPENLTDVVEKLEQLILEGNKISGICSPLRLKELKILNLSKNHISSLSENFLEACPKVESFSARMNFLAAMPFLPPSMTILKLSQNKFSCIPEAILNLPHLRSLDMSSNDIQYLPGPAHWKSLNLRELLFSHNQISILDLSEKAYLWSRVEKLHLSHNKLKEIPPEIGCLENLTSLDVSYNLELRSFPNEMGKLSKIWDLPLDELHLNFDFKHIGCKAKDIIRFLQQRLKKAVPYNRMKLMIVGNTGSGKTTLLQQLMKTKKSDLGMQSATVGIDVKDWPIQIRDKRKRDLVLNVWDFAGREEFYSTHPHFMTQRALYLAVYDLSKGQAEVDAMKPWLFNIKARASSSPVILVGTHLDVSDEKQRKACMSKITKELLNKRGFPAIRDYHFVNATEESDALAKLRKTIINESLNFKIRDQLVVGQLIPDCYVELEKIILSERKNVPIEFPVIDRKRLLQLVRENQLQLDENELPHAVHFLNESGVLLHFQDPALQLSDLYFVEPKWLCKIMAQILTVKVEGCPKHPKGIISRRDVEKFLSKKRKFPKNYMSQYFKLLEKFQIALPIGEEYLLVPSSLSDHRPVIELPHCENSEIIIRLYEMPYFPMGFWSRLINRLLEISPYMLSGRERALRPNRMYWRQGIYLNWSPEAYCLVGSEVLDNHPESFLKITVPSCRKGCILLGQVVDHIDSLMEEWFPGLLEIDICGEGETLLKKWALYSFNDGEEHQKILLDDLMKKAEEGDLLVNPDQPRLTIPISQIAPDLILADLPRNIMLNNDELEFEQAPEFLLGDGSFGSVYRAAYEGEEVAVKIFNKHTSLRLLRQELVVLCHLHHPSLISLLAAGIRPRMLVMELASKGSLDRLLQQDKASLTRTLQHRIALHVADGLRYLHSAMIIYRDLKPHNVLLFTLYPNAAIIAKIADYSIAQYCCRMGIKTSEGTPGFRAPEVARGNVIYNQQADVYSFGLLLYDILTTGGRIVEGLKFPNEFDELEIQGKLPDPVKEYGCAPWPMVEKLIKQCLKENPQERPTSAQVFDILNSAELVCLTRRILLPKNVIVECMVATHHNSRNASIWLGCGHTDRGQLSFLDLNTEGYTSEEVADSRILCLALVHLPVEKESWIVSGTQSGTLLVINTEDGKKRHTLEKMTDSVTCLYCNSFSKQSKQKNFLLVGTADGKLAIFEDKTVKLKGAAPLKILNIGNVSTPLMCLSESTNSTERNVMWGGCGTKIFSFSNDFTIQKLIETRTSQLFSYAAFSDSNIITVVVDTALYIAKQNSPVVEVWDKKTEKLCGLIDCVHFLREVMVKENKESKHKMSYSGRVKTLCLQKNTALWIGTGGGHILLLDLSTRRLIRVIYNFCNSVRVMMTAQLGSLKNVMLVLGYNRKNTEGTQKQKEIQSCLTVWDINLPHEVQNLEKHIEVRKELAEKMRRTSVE
Description: as §1, §2, §3, §4

T1 sequence (Q5S007 whole entry): as the sequence (Q5S007 whole entry G2019S) above, with S2019G counted along it

Row | SMILES | IC50 [1] | IC50 (full-length LRRK2 G2019S)
1 | C[C@@H]1COCC[C@H]1n1c(C#N)cc2cnc(Nc3cn(CCO)nc3OC3COC3)nc21 (single isomer, unassigned) [Example 160, 2-((1-(2-hydroxyethyl)-3-(oxetan-3-yloxy)-1 H-pyrazol-4-yl)amino)-7-(trans-3-methyltetrahydro-2H-pyran-4-yl)-7H-pyrrolo[2,3-d]pyrimidine-6-carbonitrile] | 325 nM | 258 nM
2 | C[C@@H]1COCC[C@H]1n1c(C#N)cc2cnc(Nc3cn(CCO)nc3OC3COC3)nc21 (single isomer, unassigned) [Example 161, 2-((1-(2-hydroxyethyl)-3-(oxetan-3-yloxy)-1 H-pyrazol-4-yl)amino)-7-(trans-3-methyltetrahydro-2H-pyran-4-yl)-7H-pyrrolo[2,3-d]pyrimidine-6-carbonitrile] | 7 nM | 14 nM
3 | CC(=O)N1CC(Oc2nn(C)cc2Nc2ncc3cc(C#N)n([C@H]4COC[C@@H]4C)c3n2)C1 [Example 1, 2-[[3-(1-acetylazetidin-3-yl)oxy-1-methyl-pyrazol-4-yl]amino]-7-[(3R,4R)-4-methyltetrahydrofuran-3-yl]pyrrolo[2,3-d]pyrimidine-6-carbonitrile] | 6 nM | 5 nM
4 | C[C@H]1COC[C@@H]1n1c(C#N)cc2cnc(Nc3cn(C)nc3OC3COC3)nc21 [Example 8, 2-[[1-methyl-3-(oxetan-3-yloxy)pyrazol-4-yl]amino]-7-[(3R,4R)-4-methyltetrahydrofuran-3-yl]pyrrolo[2,3-d]pyrimidine-6-carbonitrile] | 6 nM | 4 nM
5 | CC(CO)n1cc(Nc2ncc3cc(C#N)n([C@H]4COC[C@@H]4C)c3n2)c(OC2COC2)n1 (stereo partly drawn) [Example 9, 2-[[1-[2-Hydroxy-1-methyl-ethyl]-3-(oxetan-3-yloxy)pyrazol-4-yl]amino]-7-[(3R,4R)-4-methyltetrahydrofuran-3-yl]pyrrolo[2,3-d]pyrimidine-6-carbonitrile] | 5 nM | 5 nM
6 | C[C@H]1COC[C@@H]1n1c(C#N)cc2cnc(Nc3cn(CS(C)(=O)=O)nc3OC3COC3)nc21 [Example 14, 2-[[1-(Methylsulfonylmethyl)-3-(oxetan-3-yloxy)pyrazol-4-yl]amino]-7-[(3R,4R)-4-methyltetrahydrofuran-3-yl]pyrrolo[2,3-d]pyrimidine-6-carbonitrile] | 2 nM | 2 nM
7 | [2H]C([2H])([2H])n1cc(Nc2ncc3cc(C#N)n([C@H]4COC[C@@H]4C)c3n2)c(OC2COC2)n1 [Example 19, 2-((1-(Methyl-d3)-3-(oxetan-3-yloxy)-1 H-pyrazol-4-yl)amino)-7-((3R,4R)-4-methyltetrahydrofuran-3-yl)-7H-pyrrolo[2,3-d]pyrimidine-6-carbonitrile] | 5 nM | 5 nM
8 | C[C@H]1COC[C@@H]1n1c(C#N)cc2cnc(Nc3ccc(C(C)(C)O)cc3OC3COC3)nc21 [Example 20, 2-((4-(2-Hydroxypropan-2-yl)-2-(oxetan-3-yloxy)phenyl)amino)-7-((3R,4R)-4-methyltetrahydrofuran-3-yl)-7H-pyrrolo[2,3-d]pyrimidine-6-carbonitrile] | 3 nM | 3 nM
9 | CC(C)Oc1nn(CC(F)(F)F)cc1Nc1ncc2cc(C#N)n([C@H]3COC[C@@H]3C)c2n1 [Example 25, 2-((3-Isopropoxy-1-(2,2,2-trifluoroethyl)-1H-pyrazol-4-yl)amino)-7-((3R,4R)-4-methyltetrahydrofuran-3-yl)-7H-pyrrolo[2,3-d]pyrimidine-6-carbonitrile] | 1 nM | 1 nM
10 | CC(C)Oc1nn(C)cc1Nc1ncc2cc(C#N)n([C@H]3COC[C@@H]3C)c2n1 [Example 26, 2-((3-Isopropoxy-1-methyl-1H-pyrazol-4-yl)amino)-7-((3R,4R)-4-methyltetrahydrofuran-3-yl)-7H-pyrrolo[2,3-d]pyrimidine-6-carbonitrile] | 1 nM | 1 nM
